Test [1] relates to V79 (Chinese Hamster Lung Fibroblasts) cells. The test is described as follows: In vitro cytotoxicity assay (light EC50, Alamar blue). Type of test: cell-based. The procedure: The in vitro biological evaluation of photosensitizers for their ability to photosensitize cells was performed using standard procedures. Using 5% FBS/DMEM phenol-free media, wells (180 μl/well) were plated with 5×10^4 V79 (Chinese Hamster Lung Fibroblasts) cells/ml into two 96 well plates. Plate 1 was light-treated and plate 2 served as a control. The plates were Incubated at 37° C., 5% CO2 for 3-5 hours. Standard solutions of the photosensitizers were dissolved in pre-filtered Dimethyl Sulfoxide (DMSO). Drug was diluted in 5% FBS DMEM phenol free medium. Final drug concentrations for light and dark experiments were 0.01, 0.1, 1.0, 3.0 and 5.0 μM. Twenty microliters of each concentration were added to six replicate wells to the light and dark plate. The plates were wrapped in aluminum foil to avoid photoactivation and mixed in a gyratory shaker for approximately 2 minutes. Both plates were incubated for 24 hours at 37° C., 5% CO2. After a 24 hour incubation, drug-containing media was aspirated from the plates. Each well was rinsed with 180 μl Hepes buffer salt solution (HBSS) then aspirated to remove the HBSS. 180 μl of fresh media were added (5% FBS/DMEM phenol-free) to each well. […] Plate 2 was not light treated. Immediately after light treatment, 20 μl Alamar blue was added to each well in plate 1. Alamar blue was added to plate 2 immediately after fresh media was added. The plates were mixed on a gyratory shaker for 5 min.
Both plates were incubated under dark conditions for 24 hours at 37° C., 5% CO2. After 24 hour incubation, the plates were read on a plate reader spectrophotometer (Spectra Max 250) at wavelengths 570 and 600 nm. and the percentage of cell survival recorded.
For orientation: Alamar Blue is a resazurin reagent that responds to reducing activity.

For test [2], the system named is normal uninjured rat carotid arteries (medial and adventitial cell populations). The test is described as follows: In vivo rat carotid artery acellularity after PDT. More on the design: species or system Sprague Dawley rats. The note with it: for Max % rat Artery Accelularity: Table 3, 50 J/cm^2, 3 days post treatment; for efficacy of free base porphyrins in the arterial rat model: at the time point, drug and light dose parameters used. Here is the method: The acute effects of metallated photosensitizers, in response to light activation, to cause depletion of cell populations in the medial and adventitial layers of vessels was measured in normal uninjured rat carotid arteries. […] Shortly before the light treatment, the rats were anaesthetized with 3.5% isoflurane (Abbott Laboratories, IL, USA) and the femoral region of the right leg was shaved and cleaned. […] A direct arteriotomy was performed and a light balloon catheter ([…] Medical Technologies, Inc) was introduced into the vessel and advanced retrogradely into a non-manipulated region of the left common carotid artery via the abdominal aorta. […] After light treatment and removal of the catheter, the right femoral artery was tied off and the skin wound was closed. Rats were sacrificed three days post treatment as this corresponds to the known peak time that vascular cells, e.g., VSMC and myofibroblasts, proliferate and migrate in response to an injury. The area spanning both left and right carotid arteries and surrounding tissue was harvested, fixed, embedded in paraffin and sectioned. The tissues were stained with Hematoxylin and Eosin (Fisher Scientific, PA) and examined by light microscopy to histologically assess the cell population density in the medial and adventitial layers of the PDT-treated vessel wall. […] Metallo azaporphyrins with Ga, Zn, Al, Sn were excited at 575 nm, while Pt azaporphyrins were excited at 532 nm.

Where [3] appears, read: Table 3 porphyrins, 24 h drug incubation, 532 nm, 1.25 J/cm^2, read-out: In Vitro EC50 Light.
Where [4] appears, read: Table 4 azaporphyrins, 575 nm (Pt azaporphyrins 532 nm), 1.25 J/cm^2, read-out: In Vitro EC(50).

Read-outs that look alike come from different tables or passages of the source.

As to “Gallium Chloride 8,13-diethyl-3,7,12,17-tetramethylporphyrin-2,18-di(butanoic acid methyl ester) [Example 26]”, in test [1] (setting [3]), the EC50 came out at 0.37 µM. Moreover, in test [2] (drug dose 1 μMol), the “Max % rat Artery Accelularity” value came to 75%.

For “Zinc 8,13-diethyl-3,7,12,17-tetramethylporphyrin-2,18-di(butanoic acid methyl ester) [Example 49]”, the EC50 in test [1] (setting [3]) amounted to 4 µM. Further, in test [2] (drug dose 1 μMol), the “Max % rat Artery Accelularity” value is 0%.

On to `CCC1=C(C)c2cc3[n-]c(cc4nc(cc5[n-]c(cc1n2)c(C)c5CC)C(C)=C4CCC(=O)[O-])c(CCC(=O)[O-])c3C.[In+3].[Na+].[Na+].[OH-]` [Example 110, Indium Hydroxy Mesoporphyrin Disodium Salt], for which the EC50 in test [1] (setting [3]) is 1 µM. For the same molecule, the “Max % rat Artery Accelularity” value in test [2] (drug dose 1 μMol) is 0%.

For `CCC1=C(C)C2=[N+]3C1=Cc1c(C)c(CC)c4[n]1[Al-2]31([Cl])[n]3c(c(C)c(CCCO)c3=CC3=[N+]1C(=C4)C(C)=C3CCCO)=C2` [Example 73, Aluminum Chloride 8,13-diethyl-3,7,12,17-tetramethylporphyrin-2,18-di(3′-hydroxypropyl)], the EC50 in test [1] (setting [3]) was 3.6 µM. In test [2] (drug dose 1 μMol), the “Max % rat Artery Accelularity” value was determined as 0%.

With `CCC1=C(C)C2=Cc3c(CC)c(C)c4[n]3[Pt][n]3c(c(C)c(CCC(=O)[O-])c3=CC3=NC(=C4)C(C)=C3CCC(=O)[O-])=CC1=N2.[Na+].[Na+]` [Example 111, Platinum Mesoporphyrin Disodium Salt], in test [1] (setting [3]), the EC50 came out at 0.7 µM. The “Max % rat Artery Accelularity” value in test [2] (drug dose 1 μMol) amounted to 0%.

As to `CCC1=C(C)c2cc3[nH]c(cc4nc(cc5[nH]c(cc1n2)c(C)c5CC)C(C)=C4CCCC(=O)OC)c(CCCC(=O)OC)c3C` [metal-free analog of compound 26, 8,13-diethyl-3,7,12,17-tetramethylporphyrin-2,18-di(butanoic acid methyl ester)], the “efficacy of free base porphyrins in the arterial rat model” value (“efficacy of free base porphyrins” below) in test [2] is “poor efficacy”.

Consider `CCOC(=O)CCCCC1=C(C)c2cc3[nH]c(cc4nc(cc5[nH]c(cc1n2)c(CCCCC(=O)OCC)c5C)C(CC)=C4C)c(CC)c3C` [metal-free analog of compound 28, 8,13-diethyl-3,7,12,17-tetramethylporphyrin-2,18-di(pentanoic acid ethyl ester)], for which the “efficacy of free base porphyrins” value in test [2] is listed as “poor efficacy”.

In the case of “Gallium Chloride 7,8,12,13-tetraethyl-12,17-dimethyl-10-azaporphyrin-2,18-di(3′-hydroxypropyl) [Example 23]”, the EC50 in test [1] (setting [4]) was 0.05 µM. Moreover, in test [2] (Table 4, drug dose 1 μMol, 575 nm (Pt 532 nm)), the “Max % Rat Artery Accelularity” value was 50%.

With `CC1=CC2=Cc3c(C)cc4[n]3[Ga-2]35([Cl])[n]6c(c(C)c(CCC(=O)NCCCO)c6=CC6=[N+]3C(=C4)C(C)=C6CCC(=O)NCCCO)=CC1=[N+]25` [Example 68, Gallium Chloride Deuteroporphyrin di(3-hydroxypropylamide)], the EC50 in test [1] (setting [3]) amounted to 3 µM.

`CCC1=C(CC)C2=Nc3c(CC)c(CC)c4[n]3[Pt][n]3c(c(C)c(CCC(=O)NCCOCCO)c3=CC3=NC(=C4)C(C)=C3CCC(=O)NCCOCCO)=CC1=N2` [Example 101, Platinum 7,8,12,13-tetraethyl-12,17-dimethyl-10-azaporphyrin-2,18-di(propionic acid-2-ethoxyethanol amide)]: the EC50 in test [1] (setting [4]) stood at 1.5 µM.

For the molecule `CCC1=C(C)c2cc3[nH]c(cc4nc(cc5[nH]c(cc1n2)c(C)c5CCC(=O)OC)C(CCC(=O)OC)=C4C)c(C)c3CC` [mesoporphyrin dimethyl ester, reference compound], the “efficacy of free base porphyrins” value in test [2] is reported as “poor efficacy”.

As for `COC(=O)CCC1=C(C)C2=Cc3c(C)c(C(C)OC)c4[n]3[Ga-2]35([Cl])[n]6c(c(C)c(CCC(=O)OC)c6=CC1=[N+]23)=CC1=[N+]5C(=N4)C(C)=C1C(C)OC` (mixture of isomers) [M=Ga R1,R3=Me R2,R4=CH(OMe)CH3 R=CO2Me], the EC50 in test [1] (setting [4]) worked out at 1 µM.

Consider `CC1=C(CCC(=O)[O-])c2cc3[n-]c(cc4nc(cc5[n-]c(cc1n2)c(CCC(=O)[O-])c5C)C(C)=C4CCC(=O)[O-])c(CCC(=O)[O-])c3C.[In+3].[Na+].[Na+].[Na+].[Na+].[OH-]` [Example 113, Indium Hydroxy Coproporphyrin III Tetra Sodium Salt], for which, in test [1] (setting [3]), the EC50 was 3.6 µM. The “Max % rat Artery Accelularity” value in test [2] (drug dose 1 μMol) is recorded as 0%.

As for `CCC1=C(CC)C2=Nc3c(CC)c(CC)c4[n]3[Pt][n]3c(c(C)c(CCC(=O)NCCOC)c3=CC3=NC(=C4)C(C)=C3CCC(=O)NCCOC)=CC1=N2` [Example 96, Platinum 7,8,12,13-tetraethyl-12,17-dimethyl-10-azaporphyrin-2,18-di(propionic acid-2′-methoxyethyl amide)], in test [1] (setting [4]), the EC50 was 1.9 µM.

With `CCC1=C(CC)C2=[N+]3C1=Nc1c(CC)c(CC)c4[n]1[Ga-2]31([Cl])[n]3c(c(CC)c(CC)c3=C2c2ccc(OC)cc2)=NC2=[N+]1C(=C4c1ccc(OC)cc1)C(CC)=C2CC` [M=Ga, R1=Et, R2=Et, R3=p-(C6H4)OCH3], the EC50 in test [1] (light EC50, metallodiazaporphyrins, read-out: In Vitro EC(50)) is 0.6 µM.

As for “Aluminum Chloride 8,13-diethyl-3,7,12,17-tetramethylporphyrin-2,18-di(butanoic acid methyl ester) [Example 48]”, the EC50 in test [1] (setting [3]) was found to be 4 µM. The “Max % rat Artery Accelularity” value in test [2] (drug dose 1 μMol) is on record as 0%.

In the case of “Gallium Chloride 7,8,12,13-tetraethyl-12,17-dimethyl-10-azaporphyrin-2,18-di(propionic acid-3′-hydroxypropyl amide) [Example 97]”, in test [1] (setting [4]), the EC50 turned out to be 1.7 µM.

In the case of “Gallium Chloride 7,8,12,13-tetraethyl-12,17-dimethyl-10-azaporphyrin-2,18-di(propionic acid-2′-N,N-dimethylaminoethyl amide) [Example 102]”, the EC50 in test [1] (setting [4]) turned out to be 1.2 µM.

Take `CCC1=C(C)C2=[N+]3C1=Cc1c(C)c(CC)c4[n]1[Al-2]31([Cl])[n]3c(c(C)c(CCC(=O)NC)c3=CC3=[N+]1C(=C4)C(C)=C3CCC(=O)NC)=C2` [Example 61, Aluminum Chloride Mesoporphyrin N-methylamide]: in test [1] (setting [3]), the EC50 was 2 µM.

Consider `CCC1=C(CC)C2=Nc3c(CC)c(CC)c4[n]3[Al]([Cl])[n]3c(c(C)c(CCC(=O)NC)c3=CC3=NC(=C4)C(C)=C3CCC(=O)NC)=CC1=N2` [Example 93, Aluminum Chloride 7,8,12,13-tetraethyl-12,17-dimethyl-10-azaporphyrin-2,18-di(propionic acid methyl amide)], for which the EC50 in test [1] (setting [4]) was found to be 0.1 µM.

`CCC1=C(C)C2=NC1=Nc1c(C)c(CC)c3[n]1[Ga]([Cl])[n]1c(c(C)c(CCC(=O)NC)c1=CC1=NC(=C3)C(C)=C1CCC(=O)NC)=C2` [Example 94, Gallium Chloride 5-aza-mesoporphyrin IX Dimethyl Amide]: the EC50 in test [1] (setting [4]) was determined as 0.52 µM.

Take `C=CC1=C(C)c2cc3[n-]c(cc4nc(cc5[n-]c(cc1n2)c(C)c5CCC(=O)[O-])C(CCC(=O)[O-])=C4C)c(C)c3C=C.[In+3].[Na+].[Na+].[OH-]` [Example 112, Indium Hydroxy Protoporphyrin Disodium Salt]: the EC50 in test [1] (setting [3]) was 1.5 µM. In addition, the “Max % rat Artery Accelularity” value in test [2] (drug dose 1 μMol) is given as 0%.

As for `CCC1=C(CC)C2=Nc3c(CC)c(CC)c4[n]3[Ga]([Cl])[n]3c(c(C)c(CCC(=O)NCCOC)c3=CC3=NC(=C4)C(C)=C3CCC(=O)NCCOC)=CC1=N2` [Example 95, Gallium Chloride 7,8,12,13-tetraethyl-12,17-dimethyl-10-azaporphyrin-2,18-di(propionic acid 2′-methoxyethyl amide)], in test [1] (setting [4]), the EC50 came out at 2 µM.

(Values after patent publication US6827926B2, “Metallotetrapyrrolic photosensitizing agents for use in photodynamic therapy” (Miravant Pharmaceuticals, Inc., priority 2001, dated 2004).)
